Measurements reported in US20230348496A1, “PESTICIDALLY ACTIVE HETEROCYCLIC DERIVATIVES WITH SULFUR CONTAINING SUBSTITUENTS” (SYNGENTA CROP PROTECTION AG, priority 2020, published 2023).

How the values were obtained:
Format in all cases: in vivo
[1] = tested on: Spodoptera littoralis (Egyptian Cotton Leaf Worm); test: Activity against Spodoptera littoralis (Egyptian cotton leaf worm); conditions: foliar, 72 h, application rate 200 ppm, sprayed cotton leaf discs, L1 larvae, 3 days after infestation
Procedure: Example B3: Activity Against Spodoptera littoralis (Egyptian Cotton Leaf Worm)
Cotton leaf discs were placed onto agar in 24-well microtiter plates and sprayed with aqueous test solutions prepared from 10′000 ppm DMSO stock solutions. After drying the leaf discs were infested with five L1 larvae. The samples were assessed for mortality, anti-feeding effect, and growth inhibition in comparison to untreated samples 3 days after infestation. Control of Spodoptera littoralis by a test sample is given when at least one of the categories mortality, anti-feedant effect, and growth inhibition is higher than the untreated sample.

[2] = tested on: Diabrotica Balteata (Corn Root Worm); test: Activity against Diabrotica balteata (corn root worm), sprayed maize sprouts; conditions: 96 h, application rate 200 ppm, L2 larvae on sprayed maize sprouts, 4 days after infestation, read-out: effect in at least one of the two categories (mortality or growth inhibition)
Procedure: Example B1: Activity Against Diabrotica Balteata (Corn Root Worm)
Maize sprouts placed onto an agar layer in 24-well microtiter plates were treated with aqueous test solutions prepared from 10′000 ppm DMSO stock solutions by spraying. After drying, the plates were infested with L2 larvae (6 to 10 per well). The samples were assessed for mortality and growth inhibition in comparison to untreated samples 4 days after infestation.

[3] = tested on: Euschistus heros (Neotropical Brown Stink Bug); test: Activity against Euschistus heros (neotropical brown stink bug); conditions: 120 h, application rate 200 ppm, sprayed soybean leaves, N2 nymphs, 5 days after infestation, read-out: effect in at least one of the two categories (mortality or growth inhibition)
Procedure: Example B6: Activity Against Euschistus heros (Neotropical Brown Stink Bug)
Soybean leaves on agar in 24-well microtiter plates were sprayed with aqueous test solutions prepared from 10′000 ppm DMSO stock solutions. After drying the leaves were infested with N2 nymphs. The samples were assessed for mortality and growth inhibition in comparison to untreated samples 5 days after infestation.

[4] = tested on: Myzus persicae (Green Peach Aphid); test: Myzus persicae (green peach aphid), systemic activity; conditions: 144 h, test rate 24 ppm, roots of infested pea seedlings in test solution, 6 days
Procedure: Example B11: Myzus persicae (Green Peach Aphid). Systemic Activity
Roots of pea seedlings infested with an aphid population of mixed ages were placed directly into aqueous test solutions prepared from 10′000 DMSO stock solutions. The samples were assessed for mortality 6 days after placing seedlings into test solutions.

[5] = tested on: Frankliniella occidentalis (Western Flower Thrips); test: Activity against Frankliniella occidentalis (western flower thrips); conditions: foliar, 168 h, application rate 200 ppm, sprayed sunflower leaf discs, population of mixed ages, 7 days after infestation
Procedure: Example B7: Activity Against Frankliniella occidentalis (Western Flower Thrips)
Sunflower leaf discs were placed on agar in 24-well microtiter plates and sprayed with aqueous test solutions prepared from […] stock solutions. After drying the leaf discs were infested with a Frankliniella population of mixed ages. The samples were assessed for mortality 7 days after infestation.

[6] = tested on: Myzus persicae (Green Peach Aphid); test: Activity against Myzus persicae (green peach aphid), feeding/contact activity; conditions: foliar, 144 h, application rate 200 ppm, sprayed sunflower leaf discs, aphid population of mixed ages, 6 days after infestation
Procedure: Example B2: Activity Against Myzus persicae (Green Peach Aphid) Feeding/Contact Activity
Sunflower leaf discs were placed onto agar in a 24-well microtiter plate and sprayed with aqueous test solutions prepared from 10′000 ppm DMSO stock solutions. After drying, the leaf discs were infested with an aphid population of mixed ages. The samples were assessed for mortality 6 days after infestation.

[7] = tested on: Plutella xylostella (Diamond Back Moth); test: Activity against Plutella xylostella (diamond back moth); conditions: 192 h, application rate 200 ppm, artificial diet, Plutella eggs, 8 days after infestation, read-out: effect in at least one of the two categories (mortality or growth inhibition)
Procedure: Example B8: Activity Against Plutella xylostella (Diamond Back Moth)
24-well microtiter plates with artificial diet were treated with aqueous test solutions prepared from 10′000 ppm DMSO stock solutions by pipetting. After drying, Plutella eggs were pipetted through a plastic stencil onto a gel blotting paper and the plate was closed with it. The samples were assessed for mortality and growth inhibition in comparison to untreated samples 8 days after infestation.

[8] = tested on: Chilo suppressalis (Striped Rice Stemborer); test: Activity against Chilo suppressalis (striped rice stemborer); conditions: 144 h, application rate 200 ppm, artificial diet, L2 larvae, 6 days after infestation
Procedure: Example B5: Activity Against Chilo suppressalis (Striped Rice Stemborer)
24-well microtiter plates with artificial diet were treated with aqueous test solutions prepared from 10′000 ppm DMSO stock solutions by pipetting. After drying, the plates were infested with L2 larvae (6-8 per well). The samples were assessed for mortality, anti-feeding effect, and growth inhibition in comparison to untreated samples 6 days after infestation. Control of Chilo suppressalis by a test sample is given when at least one of the categories mortality, anti-feedant effect, and growth inhibition is higher than the untreated sample.

[9] = tested on: Carpocapsa (Cydia) Pomonella (Codling Moth); test: Activity against Carpocapsa (Cydia) pomonella (codling moth), larvicide, feeding/contact; conditions: 336 h, application rate 12.5 ppm, sprayed diet cubes, L1 larvae, 14 days after infestation
Procedure: Example B10: Activity Against Carpocapsa (Cydia) Pomonella (Codling Moth) Larvicide, Feeding/Contact
Diet cubes coated with paraffin were sprayed with diluted test solutions in an application chamber. After drying off the treated cubes (10 replicates) were infested with 1 L1 larvae. Samples were incubated at 26-27° C. and checked 14 days after infestation for mortality and growth inhibition.

[10] = tested on: Bemisia tabaci (Cotton White Fly); test: Activity against Bemisia tabaci (cotton white fly); conditions: foliar, 144 h, application rate 200 ppm, sprayed cotton leaf discs, adult white flies, 6 days after incubation
Procedure: Example B4: Activity Against Bemisia tabaci (Cotton White Fly)
Cotton leaf discs were placed on agar in 24-well microtiter plates and sprayed with aqueous test solutions prepared from 10′000 ppm DMSO stock solutions. After drying the leaf discs were infested with adult white flies. The samples were checked for mortality 6 days after incubation.

[11] = tested on: Nilaparvata lugens (Brown Plant Hopper); test: Activity against Nilaparvata lugens (brown plant hopper), larvicide, systemic into water; conditions: 168 h, application rate 12.5 ppm, rice plants in nutritive solution, N3 nymphs, 7 days after infestation
Procedure: Example B9: Activity Against Nilaparvata lugens (Brown Plant Hopper) Larvicide, Systemic into Water
Rice plants cultivated in a nutritive solution were treated with the diluted test solutions into nourishing cultivation system. 1 day after application plants were infested with ˜20 N3 nymphs. 7 days after infestation samples were assessed for mortality and growth regulation.

CCS(=O)(=O)c1c(N2Cc3ncc(C(F)(F)F)cc3C2=O)nn2cc(C(C)(C)C#N)ccc12 [Compound P7, 2-[3-ethylsulfonyl-2-[5-oxo-3-(trifluoromethyl)-7H-pyrrolo[3,4-b]pyridin-6-yl]pyrazolo[1,5-a]pyridin-6-yl]-2-methyl-propanenitrile]
≥ 80%: percent control (mortality, anti-feedant effect or growth inhibition) at 200 ppm [1] | percent effect (mortality or growth inhibition) at 200 ppm [2] | percent effect (mortality or growth inhibition) at 200 ppm [3] | mortality at 24 ppm [4] | mortality at 200 ppm [5] | mortality at 200 ppm [6] | percent effect (mortality or growth inhibition) at 200 ppm [7] | percent control (mortality, anti-feedant effect or growth inhibition) at 200 ppm [8]

CCS(=O)(=O)c1c(N2Cc3ccc(S(=O)(=O)C(F)(F)F)cc3C2=O)nn2ccc(C(F)(F)F)cc12 [Compound P3, 2-[3-ethylsulfonyl-5-(trifluoromethyl)pyrazolo[1,5-a]pyridin-2-yl]-6-(trifluoromethylsulfonyl)isoindolin-1-one]
≥ 80%: mortality at 12.5 ppm [9] | percent control (mortality, anti-feedant effect or growth inhibition) at 200 ppm [1] | percent effect (mortality or growth inhibition) at 200 ppm [2] | mortality at 200 ppm [5] | mortality at 200 ppm [6] | percent effect (mortality or growth inhibition) at 200 ppm [7] | percent control (mortality, anti-feedant effect or growth inhibition) at 200 ppm [8]

CCS(=O)(=O)c1c(N2Cc3ccc(OC(F)(F)F)cc3C2=O)nn2ccc(C(F)(F)F)cc12 [Compound P2, 2-[3-ethylsulfonyl-5-(trifluoromethyl)pyrazolo[1,5-a]pyridin-2-yl]-6-(trifluoromethoxy)isoindolin-1-one]
≥ 80%: mortality at 12.5 ppm [9] | percent control (mortality, anti-feedant effect or growth inhibition) at 200 ppm [1] | percent effect (mortality or growth inhibition) at 200 ppm [2] | mortality at 200 ppm [10] | mortality at 200 ppm [6] | percent effect (mortality or growth inhibition) at 200 ppm [7] | percent control (mortality, anti-feedant effect or growth inhibition) at 200 ppm [8]

CCS(=O)(=O)c1c(N2Cc3ncc(C(F)(F)F)cc3C2=O)nn2ccc(C(F)(F)F)cc12 [Compound P5, 6-[3-ethylsulfonyl-5-(trifluoromethyl)pyrazolo[1,5-a]pyridin-2-yl]-3-(trifluoromethyl)-7H-pyrrolo[3,4-b]pyridin-5-one]
≥ 80%: mortality at 12.5 ppm [11] | mortality at 12.5 ppm [9] | percent control (mortality, anti-feedant effect or growth inhibition) at 200 ppm [1] | percent effect (mortality or growth inhibition) at 200 ppm [2] | percent effect (mortality or growth inhibition) at 200 ppm [3] | percent effect (mortality or growth inhibition) at 200 ppm [7] | percent control (mortality, anti-feedant effect or growth inhibition) at 200 ppm [8]

CCS(=O)(=O)c1c(N2Cc3ncc(C(F)(F)F)cc3C2=O)nn2cc(C3(C#N)CC3)ccc12 [Compound P4, 1-[3-ethylsulfonyl-2-[5-oxo-3-(trifluoromethyl)-7H-pyrrolo[3,4-b]pyridin-6-yl]pyrazolo[1,5-a]pyridin-6-yl]cyclopropanecarbonitrile]
≥ 80%: mortality at 12.5 ppm [11] | mortality at 12.5 ppm [9] | percent control (mortality, anti-feedant effect or growth inhibition) at 200 ppm [1] | percent effect (mortality or growth inhibition) at 200 ppm [2] | percent effect (mortality or growth inhibition) at 200 ppm [3] | mortality at 200 ppm [5] | mortality at 200 ppm [6] | percent effect (mortality or growth inhibition) at 200 ppm [7] | percent control (mortality, anti-feedant effect or growth inhibition) at 200 ppm [8]

CCS(=O)(=O)c1c(N2Cc3ncc(C(F)(F)F)cc3C2=O)nn2cc(C(F)(F)F)ccc12 [Compound P6, 6-[3-ethylsulfonyl-6-(trifluoromethyl)pyrazolo[1,5-a]pyridin-2-yl]-3-(trifluoromethyl)-7H-pyrrolo[3,4-b]pyridin-5-one]
≥ 80%: mortality at 12.5 ppm [11] | mortality at 12.5 ppm [9] | percent control (mortality, anti-feedant effect or growth inhibition) at 200 ppm [1] | percent effect (mortality or growth inhibition) at 200 ppm [2] | mortality at 200 ppm [6] | percent effect (mortality or growth inhibition) at 200 ppm [7] | percent control (mortality, anti-feedant effect or growth inhibition) at 200 ppm [8]

CCS(=O)(=O)c1c(N2Cc3ncc(C(F)(F)F)cc3C2=O)nn2cc(C3CC3)ccc12 [Compound P1, 6-(6-cyclopropyl-3-ethylsulfonyl-pyrazolo[1,5-a]pyridin-2-yl)-3-(trifluoromethyl)-7H-pyrrolo[3,4-b]pyridin-5-one]
≥ 80%: mortality at 12.5 ppm [11] | mortality at 12.5 ppm [9] | percent control (mortality, anti-feedant effect or growth inhibition) at 200 ppm [1] | percent effect (mortality or growth inhibition) at 200 ppm [2] | percent effect (mortality or growth inhibition) at 200 ppm [3] | mortality at 200 ppm [6] | percent effect (mortality or growth inhibition) at 200 ppm [7] | percent control (mortality, anti-feedant effect or growth inhibition) at 200 ppm [8]
